According to ChEMBL document CHEMBL3745645, “Synthesis, in vitro antitumor activity, dihydrofolate reductase inhibition, DNA intercalation and structure-activity relationship studies of 1,3,5-triazine analogues” (Bioorg Med Chem Lett, 2016):
The source made the active and inactive calls. The rule behind the calls is not given here.

Columns and labels:
Assay type in all cases: functional
[1] = Cytotoxicity against human OVCAR8 cells at 10 uM after 48 hrs by SRB assay; details: OVCAR-8, 48 h, read-out: GI
SK-MEL-28 = experiment: Cytotoxicity against human SK-MEL-28 cells at 10 uM after 48 hrs by SRB assay; details: SK-MEL-28, 48 h, read-out: GI
CCRF-CEM [2] = experiment: Cytotoxicity against human CCRF-CEM cells after 48 hrs by SRB assay; details: for GI50 / TGI: pooled result: one value given for 6 cell lines, strains, targets or settings
SK-MEL-5 = experiment: Cytotoxicity against human SK-MEL-5 cells at 10 uM after 48 hrs by SRB assay; details: SK-MEL-5, 48 h, read-out: GI
K562 = experiment: Cytotoxicity against human K562 cells after 48 hrs by SRB assay; details: K562, 48 h
SN12C = experiment: Cytotoxicity against human SN12C cells at 10 uM after 48 hrs by SRB assay; details: read-out: GI
[3] = Cytotoxicity against human Caki1 cells at 10 uM after 48 hrs by SRB assay; details: CAKI-1, 48 h, read-out: GI
[4] = (§1) Cytotoxicity against human UACC257 cells at 10 uM after 48 hrs by SRB assay; details: UACC-257, 48 h, read-out: GI
[5] = (§2) Cytotoxicity against human HCC2998 cells at 10 uM after 48 hrs by SRB assay; details: HCC 2998, 48 h, read-out: GI
M14 = experiment: Cytotoxicity against human M14 cells at 10 uM after 48 hrs by SRB assay; details: M14, 48 h, read-out: GI
[6] = Cytotoxicity against human SF268 cells at 10 uM after 48 hrs by SRB assay; details: SF-268, 48 h, read-out: GI
CCRF-CEM [7] = experiment: Cytotoxicity against human CCRF-CEM cells at 10 uM after 48 hrs by SRB assay; details: read-out: GI
[8] = Cytotoxicity against human LOXIMVI cells after 48 hrs by SRB assay; details: LOX IMVI, pooled result: one value given for 9 cell lines, strains, targets or settings
[9] = Cytotoxicity against human COLO205 cells at 10 uM after 48 hrs by SRB assay; details: COLO 205, 48 h, read-out: GI
[10] = Cytotoxicity against human SF268 cells after 48 hrs by SRB assay; details: SF-268, 48 h, pooled result: one value given for 6 cell lines, strains, targets or settings
A498 = experiment: Cytotoxicity against human A498 cells at 10 uM after 48 hrs by SRB assay; details: A498, 48 h, read-out: GI
[11] = Cytotoxicity against human LOXIMVI cells at 10 uM after 48 hrs by SRB assay; details: LOX IMVI, read-out: GI
[12] = Cytotoxicity against human NCI-ADR-RES cells at 10 uM after 48 hrs by SRB assay; details: read-out: GI
[13] = Cytotoxicity against human DU145 cells at 10 uM after 48 hrs by SRB assay; details: DU-145, 48 h, read-out: GI
[14] = (§3) Cytotoxicity against human OVCAR4 cells at 10 uM after 48 hrs by SRB assay; details: OVCAR-4, 48 h, read-out: GI
[15] = Cytotoxicity against human DU145 cells after 48 hrs by SRB assay; details: DU-145, 48 h, read-out: LC50 (the source's name)
BT-549 = experiment: (§4) Cytotoxicity against human BT549 cells at 10 uM after 48 hrs by SRB assay
[16] = Cytotoxicity against human HOP62 cells at 10 uM after 48 hrs by SRB assay; details: HOP-62, 48 h, read-out: GI
MDA-MB-231 = experiment: Cytotoxicity against human MDA-MB-231 cells at 10 uM after 48 hrs by SRB assay; details: MDA-MB-231, 48 h, read-out: GI
TK-10 = experiment: (§5) Cytotoxicity against human TK10 cells at 10 uM after 48 hrs by SRB assay
[17] = Cytotoxicity against human UO31 cells at 10 uM after 48 hrs by SRB assay; details: UO-31, 48 h, read-out: GI
[18] = Cytotoxicity against human MOLT4 cells after 48 hrs by SRB assay; details: MOLT-4, 48 h, read-out: LC50 (the source's name)
SK-MEL-2 = experiment: Cytotoxicity against human SK-MEL-2 cells at 10 uM after 48 hrs by SRB assay; details: SK-MEL-2, 48 h, read-out: GI
[19] = Cytotoxicity against human SW620 cells at 10 uM after 48 hrs by SRB assay; details: SW-620, 48 h, read-out: GI
[20] = Cytotoxicity against human SF295 cells at 10 uM after 48 hrs by SRB assay; details: SF-295, 48 h, read-out: GI
[21] = Cytotoxicity against human Hs 578T cells at 10 uM after 48 hrs by SRB assay; details: read-out: GI
HL-60(TB) = experiment: Cytotoxicity against human HL-60(TB) cells at 10 uM after 48 hrs by SRB assay
[22] = Cytotoxicity against human SKOV3 cells at 10 uM after 48 hrs by SRB assay; details: SK-OV-3, 48 h, read-out: GI
[23] = (§6) Cytotoxicity against human RPMI8226 cells at 10 uM after 48 hrs by SRB assay; details: RPMI-8226, 48 h, read-out: GI
[24] = Cytotoxicity against human HCT15 cells at 10 uM after 48 hrs by SRB assay; details: HCT-15, 48 h, read-out: GI
[25] = Cytotoxicity against human PC3 cells at 10 uM after 48 hrs by SRB assay; details: PC-3, 48 h, read-out: GI
NCI-H23 = experiment: Cytotoxicity against human NCI-H23 cells at 10 uM after 48 hrs by SRB assay; details: NCI-H23, 48 h, read-out: GI
UACC-257 = experiment: as §1
HCC 2998 = experiment: as §2
[26] = Cytotoxicity against human UACC62 cells at 10 uM after 48 hrs by SRB assay; details: UACC-62, 48 h, read-out: GI
OVCAR-4 = experiment: as §3
[27] = as §4; details: BT-549, 48 h, read-out: GI
[28] = as §5; details: TK-10, 48 h, read-out: GI
OVCAR-5 = experiment: Cytotoxicity against human OVCAR5 cells at 10 uM after 48 hrs by SRB assay
RPMI-8226 = experiment: as §6

## Cc1nc2cc(Nc3nc(Nc4ccc(F)cc4)nc(-c4ccc(Cl)cc4)n3)ccc2n1Cc1ccccc1
[1]
  inhibition of growth at 10 µM: 37.2%
SK-MEL-28
  inhibition of growth at 10 µM: 7.37%
CCRF-CEM [2]
  LC50: > 100 µM
  GI50: 3.39 µM
  TGI: 9.55 µM
SK-MEL-5
  inhibition of growth at 10 µM: 16.6%
K562
  LC50: > 100 µM
SN12C
  inhibition of growth at 10 µM: 22.9%
[3]
  inhibition of growth at 10 µM: 9.6%
[4]
  inhibition of growth at 10 µM: 31.1%
[5]
  inhibition of growth at 10 µM: 18.4%
M14
  inhibition of growth at 10 µM: 41.7%
[6]
  inhibition of growth at 10 µM: 45.1%
CCRF-CEM [7]
  inhibition of growth at 10 µM: 96.1%
[8]
  GI50: 6.36 µM
  LC50: 80.6 µM
  TGI: 31.7 µM
[9]
  inhibition of growth at 10 µM: 38.2%
[10]
  GI50: 8.44 µM
  LC50 (concentration killing 50% of cells): 61.4 µM
  TGI: 48.6 µM
A498
  inhibition of growth at 10 µM: 29.7%
[11]
  inhibition of growth at 10 µM: 23.4%
[12]
  inhibition of growth at 10 µM: 41%
[13]
  inhibition of growth at 10 µM: 18.6%
[14]
  inhibition of growth at 10 µM: 41.4%
[15]
  CC50: > 100 µM
BT-549
  growth inhibition (GI): inactive
[16]
  inhibition of growth at 10 µM: 19.4%
MDA-MB-231
  inhibition of growth at 10 µM: 34%
TK-10
  growth inhibition (GI): inactive
[17]
  inhibition of growth at 10 µM: 55.5%
[18]
  CC50: > 100 µM
SK-MEL-2
  inhibition of growth at 10 µM: 16.4%
[19]
  inhibition of growth at 10 µM: 31.9%
[20]
  inhibition of growth at 10 µM: 9.63%
[21]
  inhibition of growth at 10 µM: 24.6%
HL-60(TB)
  growth inhibition (GI): Active
[22]
  inhibition of growth at 10 µM: 7.08%
[23]
  inhibition of growth at 10 µM: 99.8%
[24]
  inhibition of growth at 10 µM: 35.6%

## Cc1nc2ccc(Nc3nc(Cl)nc(Nc4ccc(F)cc4)n3)cc2n1Cc1ccccc1
[1]
  inhibition of growth at 10 µM: 57.7%
SK-MEL-28
  inhibition of growth at 10 µM: 8.45%
CCRF-CEM [2]
  LC50: > 100 µM
  GI50: 3.34 µM
  TGI: 8.68 µM
SK-MEL-5
  inhibition of growth at 10 µM: 30.8%
K562
  LC50: > 100 µM
[25]
  inhibition of growth at 10 µM: 19.2%
NCI-H23
  inhibition of growth at 10 µM: 11.8%
SN12C
  inhibition of growth at 10 µM: 53.3%
[3]
  inhibition of growth at 10 µM: 13.1%
UACC-257
  growth inhibition (GI): inactive
HCC 2998
  growth inhibition (GI): inactive
M14
  inhibition of growth at 10 µM: 17.7%
[6]
  inhibition of growth at 10 µM: 24.6%
CCRF-CEM [7]
  inhibition of growth at 10 µM: 77.1%
[8]
  GI50: 5.92 µM
  LC50: 53.9 µM
  TGI: 18.4 µM
[9]
  inhibition of growth at 10 µM: 8.82%
[10]
  GI50: 6.39 µM
  LC50 (concentration killing 50% of cells): 43.5 µM
  TGI: 24.3 µM
A498
  inhibition of growth at 10 µM: 22.2%
[11]
  inhibition of growth at 10 µM: 64.8%
[26]
  inhibition of growth at 10 µM: 48.6%
[13]
  inhibition of growth at 10 µM: 5.78%
OVCAR-4
  growth inhibition (GI): inactive
[15]
  CC50: 52.5 µM
[27]
  inhibition of growth at 10 µM: 39.8%
[16]
  inhibition of growth at 10 µM: 56.1%
MDA-MB-231
  inhibition of growth at 10 µM: 25.9%
[28]
  inhibition of growth at 10 µM: 7.64%
[17]
  inhibition of growth at 10 µM: 62.9%
[18]
  CC50: > 100 µM
[19]
  inhibition of growth at 10 µM: 17.2%
[20]
  inhibition of growth at 10 µM: 21.8%
[21]
  inhibition of growth at 10 µM: 11.1%
[22]
  inhibition of growth at 10 µM: 2.61%
OVCAR-5
  growth inhibition (GI): inactive
[23]
  inhibition of growth at 10 µM: 87.5%
[24]
  inhibition of growth at 10 µM: 44.2%

## Cc1nc2cc(Nc3nc(Nc4ccc(F)cc4)nc(-c4cccs4)n3)ccc2n1Cc1ccccc1
[1]
  inhibition of growth at 10 µM: 63%
SK-MEL-28
  inhibition of growth at 10 µM: 25.7%
CCRF-CEM [2]
  LC50: > 100 µM
  GI50: 2.59 µM
  TGI: 9.49 µM
SK-MEL-5
  inhibition of growth at 10 µM: 23.5%
K562
  LC50: > 100 µM
[25]
  inhibition of growth at 10 µM: 70.6%
SN12C
  inhibition of growth at 10 µM: 29.7%
[3]
  inhibition of growth at 10 µM: 29.8%
[4]
  inhibition of growth at 10 µM: 42.5%
[5]
  inhibition of growth at 10 µM: 27.9%
M14
  inhibition of growth at 10 µM: 46.9%
[6]
  inhibition of growth at 10 µM: 36.3%
CCRF-CEM [7]
  inhibition of growth at 10 µM: 72.8%
[8]
  GI50: 4.72 µM
  LC50: 39 µM
  TGI: 19.7 µM
[9]
  inhibition of growth at 10 µM: 43.2%
[10]
  GI50: 4.66 µM
  LC50 (concentration killing 50% of cells): 43 µM
  TGI: 14.4 µM
A498
  inhibition of growth at 10 µM: 44%
[11]
  inhibition of growth at 10 µM: 35.1%
[12]
  inhibition of growth at 10 µM: 42.7%
[26]
  inhibition of growth at 10 µM: 38.5%
[13]
  inhibition of growth at 10 µM: 24.8%
[14]
  inhibition of growth at 10 µM: 49%
[15]
  CC50: > 100 µM
[27]
  inhibition of growth at 10 µM: 30.5%
[16]
  inhibition of growth at 10 µM: 7.68%
MDA-MB-231
  inhibition of growth at 10 µM: 30.9%
[28]
  inhibition of growth at 10 µM: 37.3%
[17]
  inhibition of growth at 10 µM: 63.5%
[18]
  CC50: > 100 µM
SK-MEL-2
  inhibition of growth at 10 µM: 27.1%
[19]
  inhibition of growth at 10 µM: 31.9%
[20]
  inhibition of growth at 10 µM: 48.1%
[21]
  inhibition of growth at 10 µM: 49.7%
[22]
  inhibition of growth at 10 µM: 4.89%
RPMI-8226
  growth inhibition (GI): Active
[24]
  inhibition of growth at 10 µM: 69.7%
